pKi: −log10 of the molar value.

Experimental findings from ChEMBL document CHEMBL1156218, “The development and validation of a novel virtual screening cascade protocol to identify potential serotonin 5-HT(7)R antagonists” (Bioorg Med Chem Lett, 2010) are described below.

In experiment [1] the target is T1, 5-hydroxytryptamine receptor 7 (Homo sapiens, UniProt P34969). As to the kind of experiment: Displacement of [3H]5CT from 5HT7 receptor at 0.1 uM. For orientation: Displacement assays read how much labelled ligand stays bound in the presence of the test substance.
T1 sequence (P34969 whole entry): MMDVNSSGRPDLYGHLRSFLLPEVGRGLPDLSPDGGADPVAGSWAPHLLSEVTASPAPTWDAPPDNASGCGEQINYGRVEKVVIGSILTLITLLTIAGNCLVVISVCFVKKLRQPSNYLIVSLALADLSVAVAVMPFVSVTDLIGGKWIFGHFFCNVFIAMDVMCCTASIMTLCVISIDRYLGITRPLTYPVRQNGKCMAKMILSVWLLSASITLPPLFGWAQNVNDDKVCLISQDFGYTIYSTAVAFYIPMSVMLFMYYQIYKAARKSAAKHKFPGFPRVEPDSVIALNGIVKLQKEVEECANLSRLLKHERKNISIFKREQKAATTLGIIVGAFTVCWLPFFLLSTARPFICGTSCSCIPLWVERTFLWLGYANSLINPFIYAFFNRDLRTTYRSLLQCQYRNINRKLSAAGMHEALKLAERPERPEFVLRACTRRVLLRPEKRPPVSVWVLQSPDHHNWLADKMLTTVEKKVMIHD
In experiment [2] the target is T1, 5-hydroxytryptamine receptor 7. As to the kind of experiment: Displacement of [3H]5CT from 5HT7 receptor. The settings on record: for pKi: read-out: Ki.
For experiment [3] the target is unchanged. As to the kind of experiment: Displacement of [3H]5CT from 5HT7 receptor at 1 uM.
For experiment [4], the target named is T2, 5-hydroxytryptamine receptor 1A (Homo sapiens, UniProt P08908).
T2 sequence (P08908 whole entry): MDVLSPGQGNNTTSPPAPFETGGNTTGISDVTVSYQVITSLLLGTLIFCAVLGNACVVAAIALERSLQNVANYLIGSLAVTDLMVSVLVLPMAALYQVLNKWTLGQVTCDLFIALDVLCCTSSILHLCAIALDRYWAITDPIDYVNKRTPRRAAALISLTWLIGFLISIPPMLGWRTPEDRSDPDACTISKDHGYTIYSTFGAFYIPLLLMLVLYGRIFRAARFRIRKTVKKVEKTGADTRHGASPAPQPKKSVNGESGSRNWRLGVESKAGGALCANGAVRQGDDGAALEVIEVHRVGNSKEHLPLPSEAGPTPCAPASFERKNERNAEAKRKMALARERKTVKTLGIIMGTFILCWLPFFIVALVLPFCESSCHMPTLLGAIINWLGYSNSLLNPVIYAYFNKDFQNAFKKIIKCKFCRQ
As to the kind of experiment: Binding affinity at 5HT1A receptor.

For the molecule `OC(CNCC1COc2ccccc2O1)COc1ccccc1F` (centres undefined), the Activity was 29% in experiment [1] and 75% in experiment [3]. Besides, the values for the pKi in experiment [2] and in experiment [4] were 6.71 and 8.10, respectively.
As to `OC(CNCC1COc2ccccc2O1)COCc1ccccc1Cl` (centres undefined), the Activity in experiment [1] turned out to be 23%; in experiment [3], 67%. The pKi – broadly, the negative decadic logarithm of the Ki, by convention in mol/L – in experiment [2] is 6.58; in experiment [4], 7.44.
Consider `O=C1Nc2cccc3c2[C@]1(CCCCN1CC=C(c2ccccc2)CC1)CCC3`, for which the Ki in experiment [2] (read-out: pKi (converted)) was 2.14 nM.
